Measured values from US20060069079A1, “Stable amorphous cefdinir” (priority 2004, published 2006).

Legend:
Type in all cases: physicochemical
[1] = Physical stability of the amorphous material isolated by evaporating a methanolic solution
Text: Amorphous Cefdinir was isolated by evaporating a methanolic solution.
Stable amorphous Cefdinir with Eudragit EPO was made and isolated by evaporating a methanolic solution.
Amorphous cefdinir with PVP was made and isolated by evaporating a methanolic solution.

[2] = Thermogravimetric analysis (TGA), onset of degradation on heating; settings: heated at 10° C./min from 25° C.
Description: Thermogravimetric analysis (TGA) was performed in TA Instruments TG2950 (TA Instruments, New Castle, Del.). The samples were scanned at 10° C./minute with a dry nitrogen purge at 60 mL/minute.
For TGA analysis, the sample was heated at 10° C./min from 25° C. to 150° C. The air dried amorphous material contained about 5 wt % residual solvent. Since the TGA data also indicated degradation begins at 90° C., the residual solvent can be removed by holding the sample in the TGA for 1 hour at 25° C. (FIG. 5). At the end of the hour, the weight reached a constant value and the sample had lost 5% of its weight.
For the TGA analysis, the sample was heated at 10° C./min from 25° C. to 150° C. The air dried amorphous material contained some (˜10 wt %) residual methanol (FIG. 10). […] (FIG. 11). At the end of the hour, the weight reached a constant value and the sample had lost 10% of its weight.
For the TGA analysis, the sample was heated at 10° C./min from 25° C. to 200° C. The air dried amorphous material contained some (˜7 wt %) residual methanol. […] (FIG. 16). At the end of the hour, the weight reached a constant value and the sample had lost 7% of its weight.

[3] = HPLC potency of the isolated amorphous material, before and after drying
Description: For High Pressure Liquid Chromatography (HPLC), the sample isolated by evaporating methanol was analyzed by HPLC for potency. […] By careful drying at lower temperatures, the potency loss could be alleviated.
For the HPLC analysis, the sample isolated by evaporating methanol was analyzed by HPLC for potency. […] When the sample was re-analyzed after drying in the TGA at 25° C. or 70° C., the potency remained at 99 wt %. Therefore, the presence of Eudragit EPO improved the stability of the amorphous phase.

physical stability [1]: physically stable
temperature at which degradation begins (TGA) [2]: 90 °C
potency by HPLC after drying ([3]; reanalyzed after drying in the TGA at 25° C. or 70° C.): 93%
potency by HPLC ([3]; sample isolated by evaporating methanol, after accounting for residual solvent): 98%
Structure (SMILES): C=CC1=C(C(=O)O)N2C(=O)C(NC(=O)C(=NO)c3csc(N)n3)[C@H]2SC1 (single isomer, unassigned) [Amorphous Cefdinir, 7-[2-(2-aminothiazol-4-yl)-2-hydroxyiminoacetamide]-3-vinyl-3-cephem-4-carboxylic acid (syn isomer)]
